Assay [1] concerns cholera toxin induced diarrhea in the jejunum of the rat. As to conditions: in vivo.
Assay [2] concerns CSF production. As to conditions: in vivo; cited from earlier work.
The subject of assay [3] is transport of Na+ from plasma to CSF. The assay can be described thus: CSF production measured as 22Na+ transport from plasma to CSF after intraventricular administration. As to conditions: 5 μl/min, 300 g rats under halothan, 22Na+ i.v. 30 min after erucamide. Type of assay: in vivo, rat. An excerpt: Effect of erucamide and analogues thereof on CSF production Production of CSF depends mainly on active transport of Na^+ from the blood to the brain ventricles (Davson and Segal, 1970). Water then follows the net transport of Na^+ and other ions to maintain osmotic balance. Therefore, formation of CSF is directly proportional to Na^+ transport into the ventricular cavities. A simple technique to measure CSF production is to determine the turnover of plasma Na^+ into CSF. The method involves maintenance of a steady state level of ^22Na^+ in plasma and sampling ^22Na^+ in the CSF at various times after injection of the isotope (Knuckey et al., 1991). […] A 2-3 mm long micro-dialysis tubing, connecting 2 polyethylene tubings, was permanently placed in the cisterna magna for sampling of CSF. […] Blood samples were taken from the tail veins at 15, 30, 90 and 180 min. Blood and CSF samples were analyzed for radioactivity. Intraventricularly administered erucamide reduced by over 40% the transport of Na^+ from plasma to CSF.

As to `CCCCC/C=C\C/C=C\C/C=C\C/C=C\CCCC(=O)O` [Arachidonic acid, reference compound], in assay [1], the “Antisecretory activity relative to erucamide activity” value is recorded as “less than 20 % of the erucamide activity”.
`CCCCCCCC/C=C\CCCCCCCCCCCC(=O)O` [Erucic acid, cis-13-docosenoic acid, reference compound]: the “Antisecretory activity in the rat intestine model (in words)” value in assay [1] was “does not display any antisecretory activity”.
For `CC(=O)Nc1nnc(S(N)(=O)=O)s1` [aztzoiamide], the “Inhibition of CSF production” value in assay [2] is reported as 50%.
For `CCCCCCCC/C=C\CCCCCCCCCCCC(N)=O` [erucamide, cis-13-docosenoamide], the “Dose giving maximal antisecretory activity, expressed as concentration” value in assay [1] came out at 0.3 pM. Moreover, in assay [1] (iv), the “Dose giving maximal antisecretory activity” value is given as 1×10^−10 g/kg/dose and the “Maximal antisecretory activity (inhibition of cholera toxin induced diarrhea)” value turned out to be 75 % inhibition. The “Reduction of transport of Na+ from plasma to CSF” value in assay [3] is reported as “over 40%”.

These data come from patent publication US20040192782A1, “Erucamide compounds for the treatment and prevention to disturbances of the secretory system” (priority 2001, published 2004).
